Reference: US10981906B2, “Substituted pyrrolopyridine JAK inhibitors and methods of making and using the same” (ACLARIS THERAPEUTICS, INC., priority 2017, dated 2021)
Read-outs that look alike come from different tables or passages of the source.

Experiments:
JAK1 = JAK1 (Homo sapiens (Human), UniProt P23458); test: JAK1 enzyme activity assay (Thermo Fisher SelectScreen Z-lyte); assay type: biochemical; conditions: 1 hour kinase reaction, read-out: JAK1 Inhibition IC50
Procedure: The inhibitory potency of candidate compounds of JAK1 done at Thermo Fisher Scientific in their Selectscreen using a Z-lyte assay. The 2×JAK1/Tyr 06 mixture is prepared in 50 mM HEPES pH 6.5, 0.01% BRIJ-35, 10 mM MgCl2, 1 mM EGTA, 0.02% NaN3. The final 10 μL of the Kinase Reaction consists of 21.2-91.5 ng JAK1 and 2 μM Tyr 06 in 50 mM HEPES pH 7.0, 0.01% BRIJ-35, 10 mM MgCl2, 1 mM EGTA, 0.01% NaN3. After the 1 hour Kinase Reaction incubation, 5 μL of a 1:128 dilution of Development Reagent is added.
(§1) Background signal is defined in the absence of enzyme and uninhibited signal is defined in the presence of vehicle (2% DMSO) alone. Compounds were evaluated in an 11 point dose-response ranging from […] to 0.34 nM. IC50 values of compounds are determined using a 4 parameter logistical fit of emission ratio as a function of the concentration of compound.

JAK3 (a.a. 781-1124) = JAK3 (a.a. 781-1124) (Homo sapiens (Human), UniProt P52333); test: JAK3 enzyme activity assay (SRCtide phosphorylation, Caliper); assay type: biochemical; conditions: 2.5 nM JAK3, 1 μM SRCtide, 1 uM ATP, 40 minutes; read-out: JAK3 Inhibition IC50
JAK3 (a.a. 781-1124), sequence (P52333 781-1124): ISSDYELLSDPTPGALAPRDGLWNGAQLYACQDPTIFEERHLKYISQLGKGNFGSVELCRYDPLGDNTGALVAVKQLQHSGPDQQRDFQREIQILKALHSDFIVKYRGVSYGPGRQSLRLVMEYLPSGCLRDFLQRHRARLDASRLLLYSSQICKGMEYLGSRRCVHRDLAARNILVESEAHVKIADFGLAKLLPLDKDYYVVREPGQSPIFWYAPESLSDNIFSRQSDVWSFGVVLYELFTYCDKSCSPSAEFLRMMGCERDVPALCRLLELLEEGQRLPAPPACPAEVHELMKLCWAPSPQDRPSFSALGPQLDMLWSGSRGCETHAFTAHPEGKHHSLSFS
Procedure: The activity of JAK3 (a.a. 781-1124, ThermoFisher) was quantified by measuring the phosphorylation of SRCtide (FAM-GEEPLYWSFPAKKK-NH2). Kinase reactions were run in a 384-well Greiner plate with 2% final DMSO concentration under the buffer conditions of 20 mM HEPES, pH 7.5, 10 mM MgCl2, 0.01% BSA, and 0.0005% Tween-20. The kinase reaction components were 2.5 nM JAK3, 1 μM SRCtide peptide and 1 uM ATP. Examples were tested in dose-response starting at 2 μM (11 concentrations, 3-fold serial dilution, duplicate reactions). The reactions were incubated at room temperature for 40 minutes, then stopped by adding a 1:1 volume of 30 mM EDTA in 20 mM HEPES, pH 7.5 (15 mM EDTA final). After the reaction was stopped, the phosphorylated and unphosphorylated peptides were separated and quantified using a Caliper LC3000/EZ-Reader system and HTS Well Analyzer Software (Caliper, A PerkinElmer Company, Hopkinton, Mass.). GraFit (Erithacus Software Ltd., Horley, U.K.) was used to calculate inhibitor potency by fitting dose-response data to the 4-parameter logistical IC50 equation.
as §1

[1] = tested on: IL-2 stimulated STAT5 phosphorylation on Tyr694 (JAK1/3); test: JAK1/3 cellular target modulation: IL-2 stimulated phospho-STAT5 in PBMC; assay type: cell-based; conditions: Homo sapiens, PBMC, IL-2 25 ng/ml, 1 hour compound preincubation, read-out: IL2-STAT5 Inhibition IC50
Description: (§2) Target modulation was based upon the ability of a compound to inhibit JAK isoform specific phosphorylation of selected substrates. IL-2 stimulated STAT5 phosphorylation on Tyr694 was used to assess JAK1/3 compound selectivity. GM-CSF stimulated STAT5 phosphorylation on Tyr694 was used to assess JAK2 compound selectivity. IFNγ stimulated STAT1 phosphorylation on Tyr701 was used to assess JAK1/2 compound selectivity. For all three assays, human PBMC from frozen stocks were thawed, pelleted, resuspended in complete media (90% RPMI, 10% heat inactivated FBS, 10 mM HEPES, 47 μM 2-ME, pen/strep) and placed in wells of a 96 well V-bottom plate at 200,000 per well in 120 μl complete media. Compounds were added as 15 μl per well of 10× working stock solutions in complete media with 1% DMSO (or medium with 1% DMSO for controls) and placed on a plate shaker in a 37° C. incubator with 5% CO2 for 1 hour with gentle shaking (setting of 3). Stimulation used the addition of soluble cytokines. For the JAK1/3 phospho-STAT5 assay, 15 μl of 10× working stock recombinant human IL-2 was added to a final concentration of 25 ng/ml. For the JAK2 phospho-STAT5 assay, 15 μl of 10× working stock recombinant human GM-CSF was added to a final concentration of 5 ng/ml. For the JAK1/2 phospho-STAT1 assay, 15 μl of 10× working stock of recombinant human IFNγ was added to a final concentration of 10 ng/ml. Plates were then placed back on the plate shaker in the incubator for an additional 5, 5 and 10 minutes respectively upon which the plates were removed from the incubator, sealed with a plate sealer and the cells pelleted at 400×g for 5 minutes. After pelleting, the media was removed by aspiration and the cells were lysed in ELISA specific cell lysis buffer. The levels of phospho-STAT5 were determined using a Phospho (Tyr694)/Total STAT5a,b Whole Cell Lysate kit from Meso Scale Discovery. Levels of phospho-STAT1 were determined using a CST-PathScan Phospho-STAT1 (Tyr701) Sandwich ELISA kit.

[2] = tested on: IFNγ stimulated STAT1 phosphorylation on Tyr701 (JAK1/2); test: JAK1/2 cellular target modulation: IFNγ stimulated phospho-STAT1 in PBMC; assay type: cell-based; conditions: IFNγ 10 ng/ml, 1 hour compound preincubation, read-out: Infγ-STAT1 IC50
Description: as §2

JAK1, sequence (P23458 whole entry): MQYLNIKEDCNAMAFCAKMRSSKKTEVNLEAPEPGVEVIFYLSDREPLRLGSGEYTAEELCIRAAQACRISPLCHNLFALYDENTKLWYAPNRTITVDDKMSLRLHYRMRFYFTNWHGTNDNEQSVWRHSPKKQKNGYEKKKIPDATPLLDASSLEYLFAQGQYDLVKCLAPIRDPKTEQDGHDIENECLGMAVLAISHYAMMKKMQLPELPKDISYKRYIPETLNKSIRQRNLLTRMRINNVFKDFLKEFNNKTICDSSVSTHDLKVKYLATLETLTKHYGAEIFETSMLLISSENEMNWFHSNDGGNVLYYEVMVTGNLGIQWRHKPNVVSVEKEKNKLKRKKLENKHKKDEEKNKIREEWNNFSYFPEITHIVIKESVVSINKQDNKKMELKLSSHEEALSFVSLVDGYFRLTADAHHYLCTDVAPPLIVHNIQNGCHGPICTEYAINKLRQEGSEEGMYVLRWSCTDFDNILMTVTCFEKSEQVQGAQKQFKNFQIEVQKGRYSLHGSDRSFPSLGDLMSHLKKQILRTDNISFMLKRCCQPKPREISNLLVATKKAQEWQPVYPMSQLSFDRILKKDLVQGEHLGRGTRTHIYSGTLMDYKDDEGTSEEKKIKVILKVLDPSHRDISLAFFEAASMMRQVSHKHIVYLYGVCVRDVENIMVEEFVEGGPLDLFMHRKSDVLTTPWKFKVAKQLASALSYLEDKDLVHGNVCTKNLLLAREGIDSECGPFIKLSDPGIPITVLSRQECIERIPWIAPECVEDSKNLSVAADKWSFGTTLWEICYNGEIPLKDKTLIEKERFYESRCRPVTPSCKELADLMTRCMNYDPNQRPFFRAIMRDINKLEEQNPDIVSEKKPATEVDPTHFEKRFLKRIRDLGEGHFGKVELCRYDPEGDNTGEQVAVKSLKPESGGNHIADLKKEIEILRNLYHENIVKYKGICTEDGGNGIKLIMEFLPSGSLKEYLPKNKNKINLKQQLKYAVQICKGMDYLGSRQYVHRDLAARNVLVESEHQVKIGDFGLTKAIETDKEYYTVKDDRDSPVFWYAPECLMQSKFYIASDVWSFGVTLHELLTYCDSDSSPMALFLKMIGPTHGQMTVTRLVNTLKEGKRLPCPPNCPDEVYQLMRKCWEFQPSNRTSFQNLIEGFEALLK

Structure (SMILES)	IC50 (JAK1)	IC50 (JAK3 (a.a. 781-1124))	IC50 [1]	IC50 ([2]; Homo sapiens, PBMC)	IC50 ([2]; human PBMC)
CCOC(=O)c1cnc2[nH]ccc2c1N[C@@H]1CCC[C@H](CCC#N)C1 (single isomer, unassigned; enantiomer 2) [Example 136, (cis) ethyl 4-((3-(2-cyanoethyl)cyclohexyl)amino)-1H-pyrrolo[2,3-b]pyridine-5-carboxylate, enantiomer 2]	10 to 100 nM	10 to 100 nM	100 to 1000 nM	> 1000 nM	
COCCOC(=O)c1cnc2[nH]ccc2c1N[C@H]1CN(C(=O)CC#N)CC[C@H]1C [Example 21, 2-methoxyethyl 4-(((3R,4R)-1-(2-cyanoacetyl)-4-methylpiperidin-3-yl)amino)-1H-pyrrolo[2,3-b]pyridine-5-carboxylate]	10 to 100 nM	≤ 10 nM	100 to 1000 nM	> 1000 nM	
C=CC(=O)N1CCC[C@@H](Nc2c(C(=O)OCC)cnc3[nH]ccc23)C1 [Example 34, ethyl (R)-4-((1-acryloylpiperidin-3-yl)amino)-1H-pyrrolo[2,3-b]pyridine-5-carboxylate]	100 to 1000 nM	100 to 1000 nM	100 to 1000 nM	> 1000 nM	
CCOC(=O)c1cnc2[nH]ccc2c1NC1CCC(CCC#N)C1 (single isomer, unassigned; stereoisomer 1) [Example 154, Ethyl 4-((3-(2-cyanoethyl)cyclopentyl)amino)-1H-pyrrolo[2,3-b]pyridine-5-carboxylate, single stereoisomer 1]	100 to 1000 nM	10 to 100 nM	100 to 1000 nM	> 1000 nM	
N#CCC[C@H]1CCC[C@H](Nc2c(C(=O)O)cnc3[nH]ccc23)C1 [Example 147, 4-(((1S,3R)-3-(2-cyanoethyl)cyclohexyl)amino)-1H-pyrrolo[2,3-b]pyridine-5-carboxylic acid]	100 to 1000 nM	100 to 1000 nM	100 to 1000 nM	> 1000 nM	
CCOC(=O)c1cnc2[nH]ccc2c1NC1CCC(OCCC#N)C1 (stereo not drawn) [Example 113, ethyl 4-((3-(2-cyanoethoxy)cyclopentyl)amino)-1H-pyrrolo[2,3-b]pyridine-5-carboxylate]	10 to 100 nM	10 to 100 nM	100 to 1000 nM	> 1000 nM	
CCOC(=O)c1cnc2[nH]ccc2c1N[C@H]1CN(C(=O)C2(C#N)CC2)CC[C@H]1C [Example 126, ethyl 4-(((3R,4R)-1-(1-cyanocyclopropane-1-carbonyl)-4-methylpiperidin-3-yl)amino)-1H-pyrrolo[2,3-b]pyridine-5-carboxylate]	10 to 100 nM	10 to 100 nM	100 to 1000 nM	> 1000 nM	
COCCOC(=O)c1cnc2[nH]ccc2c1N[C@@H]1CCCN(C(=O)CC#N)C1 [Example 131, 2-methoxyethyl (R)-4-((1-(2-cyanoacetyl)piperidin-3-yl)amino)-1H-pyrrolo[2,3-b]pyridine-5-carboxylate]	10 to 100 nM	10 to 100 nM	100 to 1000 nM	100 to 1000 nM	
CCOC(=O)c1cnc2[nH]ccc2c1N[C@@H]1CC[C@@H](O)C1 (single isomer, unassigned) [Example 72, (trans)-ethyl 4-((3-hydroxycyclopentyl)amino)-1H-pyrrolo [2,3-b]pyridine-5-carboxylate]	10 to 100 nM	10 to 100 nM	100 to 1000 nM	> 1000 nM	
CCOC(=O)c1cnc2[nH]ccc2c1N[C@H]1CC[C@H](OC(=O)CC#N)C1 (single isomer, unassigned) [Example 73, (trans)-ethyl 4-((3-(2-cyanoacetoxy)cyclopentyl)amino)-1H-pyrrolo [2,3-b]pyridine-5-carboxylate]	≤ 10 nM	10 to 100 nM	≤ 100 nM		≤ 100 nM

More lines, main results first:

IC50 (JAK1)	IC50 (JAK3 (a.a. 781-1124))	IC50 [1]	IC50 ([2]; Homo sapiens, PBMC)	Structure (SMILES)	IC50 ([2]; human PBMC)
≤ 10 nM	≤ 10 nM	≤ 100 nM	100 to 1000 nM	CCOC(=O)c1cnc2[nH]ccc2c1N[C@@H]1CCCN(CCC#N)C1 [Example 123, ethyl (R)-4-((1-(2-cyanoethyl)piperidin-3-yl)amino)-1H-pyrrolo[2,3-b]pyridine-5-carboxylate]	
≤ 10 nM	10 to 100 nM	≤ 100 nM	100 to 1000 nM	CCOC(=O)c1cnc2[nH]ccc2c1N[C@H]1CN(C(=O)C(C)C#N)CC[C@H]1C (stereo partly drawn) [Example 127, ethyl 4-(((3R,4R)-1-(2-cyanopropanoyl)-4-methylpiperidin-3-yl)amino)-1H-pyrrolo[2,3-b]pyridine-5-carboxylate]	
≤ 10 nM	≤ 10 nM	≤ 100 nM	100 to 1000 nM	COC(=O)c1cnc2[nH]ccc2c1N[C@H]1CCC[C@H](CCC#N)C1 (racemic) [Example 151, trans-racemic-methyl 4-((3-(2-cyanoethyl)cyclohexyl)amino)-1H-pyrrolo[2,3-b]pyridine-5-carboxylate]	
≤ 10 nM	10 to 100 nM	≤ 100 nM	100 to 1000 nM	N#CCC(=O)N1CCC[C@@H](Nc2c(C(=O)OCC3CC3)cnc3[nH]ccc23)C1 [Example 145, cyclopropylmethyl (R)-4-((1-(2-cyanoacetyl)piperidin-3-yl)amino)-1H-pyrrolo[2,3-b]pyridine-5-carboxylate]	
≤ 10 nM	≤ 10 nM	≤ 100 nM	100 to 1000 nM	CCOC(=O)c1cnc2[nH]ccc2c1N[C@H]1CN(C(=O)CC#N)CC[C@H]1C [Example 3, ethyl 4-(((3R,4R)-1-(2-cyanoacetyl)-4-methylpiperidin-3-yl)amino)-1H-pyrrolo[2,3-b]pyridine-5-carboxylate]	
≤ 10 nM	≤ 10 nM	≤ 100 nM	100 to 1000 nM	CCOC(=O)c1cnc2[nH]ccc2c1NC1CCCC(CCC#N)C1 (stereo not drawn) [Example 132, ethyl 4-((3-(2-cyanoethyl)cyclohexyl)amino)-1H-pyrrolo[2,3-b]pyridine-5-carboxylate]	
≤ 10 nM	≤ 10 nM	100 to 1000 nM	100 to 1000 nM	CCCOC(=O)c1cnc2[nH]ccc2c1N[C@@H]1CCCN(C(=O)CC#N)C1 [Example 130, propyl (R)-4-((1-(2-cyanoacetyl)piperidin-3-yl)amino)-1H-pyrrolo[2,3-b]pyridine-5-carboxylate]	
≤ 10 nM	≤ 10 nM	≤ 100 nM	100 to 1000 nM	CCOC(=O)c1cnc2[nH]ccc2c1N[C@H]1CCC[C@H](CCC#N)C1 (racemic) [Example 134, (rac)-(trans)-Ethyl 4-((3-(2-cyanoethyl)cyclohexyl)amino)-1H-pyrrolo[2,3-b]pyridine-5-carboxylate]	
